These compounds were tested on Phakopsora pachyrhizi (assay: Example G2: curative activity against soybean rust caused by Phakopsora pachyrhizi (greenhouse)). Settings: 600 ppm; soybean seedlings, curative spray two days after inoculation, assessed after a further 10 days; untreated plants 100% infected.
Format: in vivo
With CC(Cc1cc(F)ccc1F)CC(C(O)C(C)(C)C)n1cncn1 (mixture of isomers) [I.A26b] the infection was 0%.
In the case of CC(Cc1ccc(F)cc1F)CC(C(O)C(C)(C)C)n1cncn1 (mixture of isomers) [I.A30a], the infection is reported as 0%.
CC(CCC(C(O)C(C)(C)C)n1cncn1)c1ccccc1F (mixture of isomers) [I.A36b] showed an infection of 0%.
Work on CC(Cc1cccc(Cl)c1)CC(C(O)C(C)(C)C)n1cncn1 (mixture of isomers) [I.A39a] yielded an infection of 0%.
CC(C)(C)C(O)C(CCCc1cc(F)ccc1F)n1cncn1 (racemic) [I.A24b] was tested, and the infection was 0%.
CC(C)(C)C(O)C(CCCc1cccc(F)c1F)n1cncn1 (racemic) [I.A25b] was tested, and the infection was 0%.
In the case of CC(Cc1ccc(F)cc1F)CC(C(O)C(C)(C)C)n1cncn1 (stereo not shown) [I.A30b, 7-(2,4-difluorophenyl)-2,2,6-trimethyl-4-[1,2,4]triazol-1-ylheptan-3-ol], the infection is reported as 0%.

These compounds were tested on Phytophthora infestans (assay: not given). Settings: tomato, protective, after 6 days, untreated control 90.
Format: in vivo
For CC(C)(C)C(O)C(CCCc1ccc(Cl)cc1Cl)n1cncn1 (stereo not shown), the “Infection (%) at 600 ppm C1” value was 7%.
In the case of CC(Cc1ccc(Cl)cc1Cl)CC(C(O)C(C)(C)C)n1cncn1 (stereo not shown) [reference compound], the “Infection (%) at 600 ppm C1” value is reported as 90%.

These compounds were tested on Botrytis cinerea (assay: C2: gray mold on bell pepper leaves caused by Botrytis cinerea, 1 day protective application (comparison with the prior art)). Settings: after 5 days, untreated control 100.
Format: in vivo
Method: The active compounds were prepared separately as a stock solution with 25 mg of active compound, which was made up to 10 ml with a mixture of acetone and/or DMSO and the emulsifier Uniperol® EL (wetting agent with emulsifying and dispersing action based on ethoxylated alkylphenols) in the volume ratio solvent/emulsifier of from 99 to 1. Subsequently, it was made up to 100 ml with water. This stock solution was diluted with the described solvent/emulsifier/water mixture to the active compound concentration indicated below. Alternatively, the active compounds were used as a commercially available ready-to-use solution and diluted with water to the active compound concentration indicated. Bell pepper seedlings were, after 2-3 leaves were well developed, sprayed to run off point with an aqueous suspension having the active compound concentration stated below. The next day, the treated plants were inoculated with a spore suspension of Botrytis cinerea in a 2% biomalt solution. The test plants were then placed in a dark acclimatized chamber at 22 to 24° C. and high atmospheric humidity. After 5 days, the extent of the fungal infection on the leaves could be determined visually in %.
CC(C)(C)C(O)C(CCCc1cccc(Cl)c1)n1cncn1 (stereo not shown) was tested, and the “Infection (%) at 600 ppm C2” value was 15%.
For CC(C)(C)C(O)C(CCCc1ccccc1Cl)n1cncn1 (stereo not shown) [drawing 19], the “Infection (%) at 600 ppm C2” value was 7%.
For CC(C)(C)C(O)C(CCCc1ccccc1Cl)n1cncn1 (stereo not shown) [drawing 21], the “Infection (%) at 600 ppm C2” value was 10%.
In the case of CC(C)(C)C(O)C(CCCc1ccc(Cl)cc1)n1cncn1 (stereo not shown) [reference compound], the “Infection (%) at 600 ppm C2” value is reported as 70%.

— patent US20110172099A1, “Imidazole and Triazole Compounds, Their Use and Agents Containing the Same” (BASF SE, priority 2008, published 2011)
